Assay [1] deals with T1, N-acetyllactosaminide alpha-1,3-galactosyltransferase (Sus scrofa, UniProt P50127). Kind of assay: Compound was tested for the inhibition porcine alpha -1,3 -galactosyl transferase (alpha-1,3-GalT) at 0.2 mM concentration.
The target of assay [2] is T2, Beta-1,4-galactosyltransferase 1 (Bos taurus, UniProt P08037).
T2 sequence (P08037 whole entry): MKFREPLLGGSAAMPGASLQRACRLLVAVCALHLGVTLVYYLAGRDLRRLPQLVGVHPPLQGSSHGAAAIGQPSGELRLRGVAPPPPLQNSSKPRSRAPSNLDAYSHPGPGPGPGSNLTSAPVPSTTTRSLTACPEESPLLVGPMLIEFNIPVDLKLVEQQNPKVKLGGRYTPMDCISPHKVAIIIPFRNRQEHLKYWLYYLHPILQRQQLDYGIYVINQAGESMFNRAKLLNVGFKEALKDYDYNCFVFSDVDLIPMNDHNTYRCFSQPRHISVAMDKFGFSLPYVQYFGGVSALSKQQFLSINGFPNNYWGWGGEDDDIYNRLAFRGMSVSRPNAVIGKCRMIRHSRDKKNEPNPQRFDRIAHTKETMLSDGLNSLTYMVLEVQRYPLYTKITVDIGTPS
Nature of the assay: Compound was tested for the inhibition recombinant bovine beta -1,4 -galactosyl transferase (beta-1,4-GalT); No inhibition.

Assay [3] concerns the target T2, Beta-1,4-galactosyltransferase 1. Nature of the assay: Compound was tested for the inhibition recombinant bovine beta -1,4 -galactosyl transferase (beta-1,4-GalT).
Assay [4] has as its target T1, N-acetyllactosaminide alpha-1,3-galactosyltransferase. Kind of assay: Compound was tested for the inhibition porcine alpha -1,3 -galactosyl transferase (alpha-1,3-GalT).
For assay [5] the target is unchanged. Kind of assay: Compound was tested for the inhibition porcine alpha -1,3 -galactosyl transferase (alpha-1,3-GalT); No inhibition.

SMILES strings stand for the structures.

T1 sequence (P50127 whole entry): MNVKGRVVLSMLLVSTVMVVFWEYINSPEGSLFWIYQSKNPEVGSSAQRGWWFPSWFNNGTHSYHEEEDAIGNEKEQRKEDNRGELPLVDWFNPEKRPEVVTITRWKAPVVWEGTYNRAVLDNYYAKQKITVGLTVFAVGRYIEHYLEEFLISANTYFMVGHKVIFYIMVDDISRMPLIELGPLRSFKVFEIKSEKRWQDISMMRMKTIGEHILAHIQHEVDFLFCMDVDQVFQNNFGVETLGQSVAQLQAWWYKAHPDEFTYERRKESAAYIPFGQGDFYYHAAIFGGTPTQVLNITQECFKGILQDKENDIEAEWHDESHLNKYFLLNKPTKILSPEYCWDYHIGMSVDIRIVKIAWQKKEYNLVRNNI

Consider `COC1OC(CO)C(OC2OC(CO)C(O)C(N)C2O)C(O)C1NC(C)=O` (stereo unspecified), for which, in assay [1], the Ki (commonly the equilibrium dissociation constant of an inhibitor or competing ligand from its target) was 104 µM.

In the case of `OC[C@@H]1O[C@@H](Oc2ccc3cc(Br)ccc3c2)[C@@H](O)[C@@H](O)[C@H]1O`, in assay [2], the Ki result was “Not Active”.

On to `CO[C@@H]1O[C@@H](CO)[C@H](O)[C@H](O[C@@H]2O[C@@H](CS)[C@@H](O)[C@H](O)[C@@H]2NC(C)=O)[C@@H]1O`, for which, in assay [3], the inhibitory constant (Ki) amounted to 1000 µM.

With `CC(=O)N[C@@H]1[C@H](Oc2ccc3cc(Br)ccc3c2)O[C@@H](CO)[C@@H](O[C@@H]2O[C@@H](CO)[C@H](O)[C@H](O)[C@@H]2O)[C@@H]1O`, the figures for the Ki in assay [4] and in assay [2] were 9.2 µM and “Not Active”, respectively.

In the case of `CC(=O)NC1C(Oc2cccc3ccccc23)OC(CO)C(O)C1O` (stereo unspecified), the Ki result in assay [5] was “Not Active”; in assay [3], 22 µM.

Take `COC(=O)CCCCCOC1OC(CO)C(O)C(O)C1NC(C)=O` (stereo unspecified): the Ki result in assay [2] is recorded as “Not Active”.

Regarding `COc1ccc2cc(OC3OC(CO)C(O)C(O)C3NC(C)=O)ccc2c1` (stereo unspecified), the Ki entry in assay [5] is “Not Active”; in assay [3], 3.5 µM.

In the case of `CC(=O)NC1C(Oc2ccc3cc(Br)ccc3c2)OC(CO)C(O)C1O` (stereo unspecified), the Ki result is “Not Active” in assay [5] and 7.6 µM in assay [3].

Consider `CC(=O)NC1C(Oc2ccccc2)OC(CO)C(O)C1O` (stereo unspecified), for which, in assay [2], the Ki entry is on record as “Not Active”.

On to `CC(=O)NC1C(Oc2ccc3ccccc3c2)OC(CO)C(O)C1O` (stereo unspecified), for which the Ki entry in assay [5] was “Not Active”; in assay [3], 9.5 µM.

For `CC(=O)NC1C(OCc2ccccc2)OC(CO)C(N)C1O` (stereo unspecified), in assay [3], the Ki was 850 µM.

(Values after ChEMBL document CHEMBL1130691, “Acceptor substrate-based selective inhibition of galactosyltransferases” (Bioorg Med Chem Lett, 1998).)
